Results reported in ChEMBL document CHEMBL1255532, “Cytotoxic cycloartane triterpene and rare isomeric bisclerodane diterpenes from the leaves of Polyalthia longifolia var. pendula” (Bioorg Med Chem Lett, 2010).
Values after ≈ are worked out from the molar mass of the structure shown.

Columns and labels:
A549 = test: Cytotoxicity against human A549 cells after 48 hrs by SRB assay; format: functional, cell-based; details: A549, 48 h
C-33-A = test: Cytotoxicity against human C33A cells after 48 hrs by SRB assay; format: functional, cell-based
MCF7 = test: Cytotoxicity against human MCF7 cells after 48 hrs by SRB assay; format: functional, cell-based; details: MCF7, 48 h
KB = test: Cytotoxicity against human KB cells after 48 hrs by SRB assay; format: functional, cell-based
[1] = Cytotoxicity against mouse NIH/3T3 cells after 48 hrs by SRB assay; format: cell-based; details: NIH3T3, 48 h

SMILES: COc1cccc2c1C(=O)c1c(O)c3c(c(O)c1C2=O)C[C@@](O)(C(=O)CO)C[C@@H]3O[C@H]1C[C@H](N)[C@H](O)[C@H](C)O1 [DOXORUBICIN]
- IC50 (A549): 0.33 µg/mL (≈ 0.607 µM)
- IC50 (C-33-A): 0.28 µg/mL (≈ 0.515 µM)
- IC50 (MCF7): 0.45 µg/mL (≈ 0.828 µM)
- IC50 (KB): 0.12 µg/mL (≈ 0.221 µM)

SMILES: CC1=CCC[C@@H]2[C@@](C)(CCC3=CC(=O)N(/C=C(\CC[C@@]4(C)[C@H](C)CC[C@@]5(C)C(C)=CCC[C@H]45)CC(=O)O)C3=O)[C@H](C)CC[C@@]12C [LONGIMIDE A]
- IC50 (A549): 10.1 µg/mL (≈ 16.4 µM)
- IC50 [1]: 44.7 µg/mL (≈ 72.3 µM)
- IC50 (C-33-A): 4.12 µg/mL (≈ 6.67 µM)
- IC50 (MCF7): 9.23 µg/mL (≈ 14.9 µM)
- IC50 (KB): 8.85 µg/mL (≈ 14.3 µM)

SMILES: C=C(C(C)C)[C@@H](O)C[C@@H](C)[C@H]1[C@@H](O)C[C@@]2(C)[C@@H]3CC[C@H]4C(C)(C)[C@@H](O)CC[C@@]45C[C@@]35CC[C@]12C [LONGITRIOL]
- IC50 (A549): 13.2 µg/mL (≈ 27.9 µM)
- IC50 [1]: > 50 µg/mL
- IC50 (C-33-A): 10 µg/mL (≈ 21.2 µM)
- IC50 (MCF7): 30.9 µg/mL (≈ 65.3 µM)
- IC50 (KB): 24.1 µg/mL (≈ 51 µM)
